Reference: ChEMBL document CHEMBL1201862, “PubChem BioAssay data set” (2004)
Calls of active or inactive are those of the source.

Assays:
[1] = Luminescence Cell-Based Dose Confirmation HTS to Identify Inhibitors of Polyadenylation.; assay type: functional
Vero = assay: viability of Vero cells under compound – cytotoxicity control for flavivirus capping enzyme inhibitors (AID 588742); assay type: functional; details: Chlorocebus sabaeus
Genome polyprotein = Genome polyprotein (dengue virus type 2, UniProt P29990); assay: flavivirus cap methylation enzyme inhibition – biochemical, confirmation dose response, primary screen (AID 588689); assay type: functional
Genome polyprotein, sequence (P29990 2492-3391 limits assumed): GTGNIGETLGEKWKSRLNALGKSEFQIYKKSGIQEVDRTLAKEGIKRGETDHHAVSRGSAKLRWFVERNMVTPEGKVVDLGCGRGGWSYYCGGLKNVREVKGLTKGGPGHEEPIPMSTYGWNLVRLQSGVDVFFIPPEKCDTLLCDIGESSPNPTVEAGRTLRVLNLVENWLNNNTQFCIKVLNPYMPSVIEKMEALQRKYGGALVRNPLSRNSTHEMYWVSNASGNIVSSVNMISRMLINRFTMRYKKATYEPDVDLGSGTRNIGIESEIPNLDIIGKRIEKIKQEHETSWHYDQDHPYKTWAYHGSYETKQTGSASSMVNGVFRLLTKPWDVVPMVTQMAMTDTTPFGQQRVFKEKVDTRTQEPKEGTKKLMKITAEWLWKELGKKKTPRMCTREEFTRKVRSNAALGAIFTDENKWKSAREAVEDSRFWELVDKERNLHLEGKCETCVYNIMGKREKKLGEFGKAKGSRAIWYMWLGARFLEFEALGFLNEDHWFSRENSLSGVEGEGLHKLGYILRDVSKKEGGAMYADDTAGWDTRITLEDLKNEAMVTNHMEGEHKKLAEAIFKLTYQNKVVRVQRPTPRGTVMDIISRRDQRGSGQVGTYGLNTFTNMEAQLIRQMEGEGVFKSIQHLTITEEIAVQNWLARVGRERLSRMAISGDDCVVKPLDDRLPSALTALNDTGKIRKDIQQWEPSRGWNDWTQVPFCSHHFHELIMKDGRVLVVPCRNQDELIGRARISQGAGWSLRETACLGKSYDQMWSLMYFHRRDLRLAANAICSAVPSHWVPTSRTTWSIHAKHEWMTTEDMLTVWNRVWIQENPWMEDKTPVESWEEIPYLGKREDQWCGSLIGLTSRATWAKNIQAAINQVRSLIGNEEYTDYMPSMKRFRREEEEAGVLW

[2] = target: T1, Corticotropin-releasing factor receptor 2/Corticotropin-releasing factor-binding protein (Homo sapiens, UniProt P24387+Q13324); assay: Dose Response confirmation of uHTS hits for small molecule antagonists of the CRF-binding protein and CRF-R2 receptor complex.; assay type: functional; details: read-out: IC50_Mean
T1 sequence (Q13324 whole entry): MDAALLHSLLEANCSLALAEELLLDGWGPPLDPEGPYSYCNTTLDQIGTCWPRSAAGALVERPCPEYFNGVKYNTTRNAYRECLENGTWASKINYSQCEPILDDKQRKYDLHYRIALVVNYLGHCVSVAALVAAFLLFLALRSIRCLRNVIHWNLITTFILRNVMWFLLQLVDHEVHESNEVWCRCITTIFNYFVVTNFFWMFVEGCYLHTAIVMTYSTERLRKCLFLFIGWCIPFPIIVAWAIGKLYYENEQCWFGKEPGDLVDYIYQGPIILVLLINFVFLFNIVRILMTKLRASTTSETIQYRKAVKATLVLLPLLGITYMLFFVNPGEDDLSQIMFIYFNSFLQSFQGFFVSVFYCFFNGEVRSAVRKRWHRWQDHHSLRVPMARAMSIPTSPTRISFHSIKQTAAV
T1 sequence (P24387 whole entry): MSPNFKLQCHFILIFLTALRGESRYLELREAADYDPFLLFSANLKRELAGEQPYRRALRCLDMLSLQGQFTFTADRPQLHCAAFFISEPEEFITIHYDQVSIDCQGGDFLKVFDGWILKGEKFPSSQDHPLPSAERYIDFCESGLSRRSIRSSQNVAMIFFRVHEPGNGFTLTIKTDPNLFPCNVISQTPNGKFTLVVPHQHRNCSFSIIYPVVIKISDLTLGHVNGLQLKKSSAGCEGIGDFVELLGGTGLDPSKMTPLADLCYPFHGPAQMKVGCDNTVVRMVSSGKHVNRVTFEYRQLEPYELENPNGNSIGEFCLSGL

[3] = target: T1, Corticotropin-releasing factor receptor 2/Corticotropin-releasing factor-binding protein; assay: activators of CRF receptor 2 with binding protein – uHTS hits, confirmation (AID 602473); assay type: functional; details: read-out: EC50_Mean
[4] = blockers of CRF-binding protein–CRF-R2 complex – cell-based, uHTS hits, 384-well, dose response (AID 651639); assay type: functional, Homo sapiens; details: read-out: IC50_Mean
[5] = target: 1-acylglycerol-3-phosphate O-acyltransferase ABHD5/Perilipin-5 (Homo sapiens, UniProt Q00G26+Q8WTS1); assay: Luminescence-based biochemical high throughput dose response assay for inhibitors of the interaction of the lipase co-activator protein, abhydrolase domain containing 5 (ABHD5) with perilipin-5 (MLDP; PLIN5) (2K validation set). [Related pubchem assays (depositor defined):AID493035, AID493241]
1-acylglycerol-3-phosphate O-acyltransferase ABHD5/Perilipin-5, sequence (Q00G26 whole entry, the tested form may be a part): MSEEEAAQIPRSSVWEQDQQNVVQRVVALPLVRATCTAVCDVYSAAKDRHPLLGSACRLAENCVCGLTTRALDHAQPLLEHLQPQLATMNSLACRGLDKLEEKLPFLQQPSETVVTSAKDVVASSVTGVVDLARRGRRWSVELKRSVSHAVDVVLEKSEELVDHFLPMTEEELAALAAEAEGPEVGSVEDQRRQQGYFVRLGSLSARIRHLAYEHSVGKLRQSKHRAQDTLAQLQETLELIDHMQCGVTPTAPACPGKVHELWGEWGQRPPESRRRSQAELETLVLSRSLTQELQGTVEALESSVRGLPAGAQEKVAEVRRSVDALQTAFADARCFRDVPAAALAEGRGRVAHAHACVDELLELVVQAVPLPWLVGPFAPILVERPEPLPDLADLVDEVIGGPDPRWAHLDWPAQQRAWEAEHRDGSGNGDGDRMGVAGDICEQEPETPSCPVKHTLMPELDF
1-acylglycerol-3-phosphate O-acyltransferase ABHD5/Perilipin-5, sequence (Q8WTS1 whole entry, the tested form may be a part): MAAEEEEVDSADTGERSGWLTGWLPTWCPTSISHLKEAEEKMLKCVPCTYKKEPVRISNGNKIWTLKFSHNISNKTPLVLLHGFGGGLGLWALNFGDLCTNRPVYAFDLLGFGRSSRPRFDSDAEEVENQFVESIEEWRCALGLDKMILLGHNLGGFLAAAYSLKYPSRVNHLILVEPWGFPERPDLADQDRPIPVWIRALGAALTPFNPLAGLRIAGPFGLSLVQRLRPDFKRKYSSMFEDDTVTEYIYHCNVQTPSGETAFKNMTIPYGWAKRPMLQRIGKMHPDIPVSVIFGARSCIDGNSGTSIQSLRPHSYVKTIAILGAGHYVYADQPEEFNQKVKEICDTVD

Perilipin-1/ABHD5 = Perilipin-1/ABHD5 (Homo sapiens, UniProt O60240+Q8WTS1); assay: Luminescence-based biochemical high throughput dose response assay for inhibitors of the interaction of the lipase co-activator protein, abhydrolase domain containing 5 (ABHD5) with perilipin-1 (PLIN1) (2K validation set). [Related pubchem assays (depositor defined):AID493027, AID493057]
Perilipin-1/ABHD5, sequence (Q8WTS1 whole entry, the tested form may be a part): as above
Perilipin-1/ABHD5, sequence (O60240 whole entry, the tested form may be a part): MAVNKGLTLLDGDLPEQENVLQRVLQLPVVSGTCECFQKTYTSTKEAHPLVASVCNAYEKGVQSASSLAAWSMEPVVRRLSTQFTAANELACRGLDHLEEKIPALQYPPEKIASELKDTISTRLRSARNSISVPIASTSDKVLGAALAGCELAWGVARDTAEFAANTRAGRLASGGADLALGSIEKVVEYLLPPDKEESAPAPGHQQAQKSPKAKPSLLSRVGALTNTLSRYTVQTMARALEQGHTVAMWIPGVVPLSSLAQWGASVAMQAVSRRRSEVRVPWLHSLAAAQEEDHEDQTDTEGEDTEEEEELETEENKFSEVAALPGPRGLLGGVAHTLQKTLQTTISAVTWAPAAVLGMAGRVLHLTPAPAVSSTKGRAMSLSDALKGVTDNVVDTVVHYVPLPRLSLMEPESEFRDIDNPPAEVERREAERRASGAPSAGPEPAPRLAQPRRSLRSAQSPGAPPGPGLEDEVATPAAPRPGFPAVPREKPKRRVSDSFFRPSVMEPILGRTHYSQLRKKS

[6] = target: Protein-arginine deiminase type-4 (Homo sapiens, UniProt Q9UM07); assay: IC50 against protein arginine deiminase 4 – biochemical, fluorescence readout, dose response (AID 492970)
Protein-arginine deiminase type-4, sequence (Q9UM07 whole entry): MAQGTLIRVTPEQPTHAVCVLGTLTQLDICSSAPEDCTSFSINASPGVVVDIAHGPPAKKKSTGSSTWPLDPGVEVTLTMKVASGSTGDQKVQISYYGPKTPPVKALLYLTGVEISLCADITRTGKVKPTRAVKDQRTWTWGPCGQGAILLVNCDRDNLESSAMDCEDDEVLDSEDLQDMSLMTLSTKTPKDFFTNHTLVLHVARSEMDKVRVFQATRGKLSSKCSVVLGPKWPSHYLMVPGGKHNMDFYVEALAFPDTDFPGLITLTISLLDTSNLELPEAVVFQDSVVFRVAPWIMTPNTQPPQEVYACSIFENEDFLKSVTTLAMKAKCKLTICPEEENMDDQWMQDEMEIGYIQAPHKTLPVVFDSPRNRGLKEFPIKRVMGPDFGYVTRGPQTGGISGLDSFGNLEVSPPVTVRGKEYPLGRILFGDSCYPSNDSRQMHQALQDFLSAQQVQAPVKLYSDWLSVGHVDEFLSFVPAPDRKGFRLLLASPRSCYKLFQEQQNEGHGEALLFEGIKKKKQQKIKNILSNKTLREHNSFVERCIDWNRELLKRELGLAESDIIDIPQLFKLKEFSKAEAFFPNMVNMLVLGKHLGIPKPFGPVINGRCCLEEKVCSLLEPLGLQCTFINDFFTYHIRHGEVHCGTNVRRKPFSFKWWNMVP

[7] = target: T2, Replicative DNA helicase DnaB (Mycobacterium tuberculosis, UniProt P9WMR3); assay: DnaB intein splicing inhibitors, dose response, biochemical, cell-free fluorescence (AID 449749); assay type: functional
T2 sequence (P9WMR3 whole entry): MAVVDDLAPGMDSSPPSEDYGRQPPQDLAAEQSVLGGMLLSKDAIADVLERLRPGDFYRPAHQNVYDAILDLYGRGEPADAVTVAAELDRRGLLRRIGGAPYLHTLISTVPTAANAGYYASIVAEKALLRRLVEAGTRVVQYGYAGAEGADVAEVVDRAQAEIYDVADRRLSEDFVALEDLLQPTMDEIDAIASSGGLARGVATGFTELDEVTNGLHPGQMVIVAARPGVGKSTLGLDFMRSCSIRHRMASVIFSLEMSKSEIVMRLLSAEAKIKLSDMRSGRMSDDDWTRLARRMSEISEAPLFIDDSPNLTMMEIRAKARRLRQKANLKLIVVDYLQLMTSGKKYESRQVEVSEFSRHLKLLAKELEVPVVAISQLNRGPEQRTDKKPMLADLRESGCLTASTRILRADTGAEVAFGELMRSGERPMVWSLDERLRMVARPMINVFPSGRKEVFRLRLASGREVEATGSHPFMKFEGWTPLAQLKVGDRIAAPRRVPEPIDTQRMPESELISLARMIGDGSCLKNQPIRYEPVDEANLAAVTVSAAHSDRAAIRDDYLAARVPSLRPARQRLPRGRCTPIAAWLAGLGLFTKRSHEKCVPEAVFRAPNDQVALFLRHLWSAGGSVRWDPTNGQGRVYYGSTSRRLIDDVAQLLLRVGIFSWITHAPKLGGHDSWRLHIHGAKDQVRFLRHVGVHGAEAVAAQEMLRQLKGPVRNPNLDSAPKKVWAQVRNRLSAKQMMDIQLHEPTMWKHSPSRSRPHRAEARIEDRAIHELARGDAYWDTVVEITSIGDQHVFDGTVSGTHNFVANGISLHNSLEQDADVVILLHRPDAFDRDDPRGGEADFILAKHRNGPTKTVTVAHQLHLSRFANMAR

Protein RecA = target: T3, Protein RecA (Mycobacterium tuberculosis, UniProt P9WHJ3); assay: Fluorescence Cell-Free Homogeneous Dose Retest to Identify Inhibitors of RecA-Intein Splicing Activity. [Related pubchem assays (depositor defined):AID2097, AID2223, AID489010, AID492950]; assay type: functional
T3 sequence (P9WHJ3 whole entry): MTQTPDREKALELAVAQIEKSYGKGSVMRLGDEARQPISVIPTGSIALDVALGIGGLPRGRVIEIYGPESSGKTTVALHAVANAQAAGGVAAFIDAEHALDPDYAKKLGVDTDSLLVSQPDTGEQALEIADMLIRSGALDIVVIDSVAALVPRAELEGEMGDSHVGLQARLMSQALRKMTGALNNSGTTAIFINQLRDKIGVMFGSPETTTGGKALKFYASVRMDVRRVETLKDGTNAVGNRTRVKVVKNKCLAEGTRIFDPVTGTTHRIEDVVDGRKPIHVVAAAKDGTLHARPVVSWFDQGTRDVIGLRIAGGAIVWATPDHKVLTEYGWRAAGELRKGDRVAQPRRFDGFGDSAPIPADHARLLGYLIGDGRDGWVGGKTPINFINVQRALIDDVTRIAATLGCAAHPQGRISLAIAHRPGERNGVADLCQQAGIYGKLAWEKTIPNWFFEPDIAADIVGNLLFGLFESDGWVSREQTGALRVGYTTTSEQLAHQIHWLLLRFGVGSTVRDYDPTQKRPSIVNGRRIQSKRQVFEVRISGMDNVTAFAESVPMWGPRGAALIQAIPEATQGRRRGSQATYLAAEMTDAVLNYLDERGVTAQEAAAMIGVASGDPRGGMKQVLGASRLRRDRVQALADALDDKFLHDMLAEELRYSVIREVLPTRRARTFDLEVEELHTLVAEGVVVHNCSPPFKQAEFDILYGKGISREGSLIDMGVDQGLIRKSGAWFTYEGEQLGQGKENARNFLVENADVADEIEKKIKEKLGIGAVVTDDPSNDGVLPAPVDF

[8] = target: Voltage-gated inwardly rectifying potassium channel KCNH2 (Homo sapiens, UniProt Q12809); details: Potency;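 note: confirmatory quantitative high-throughput screen measuring inhibition of hERG channel activity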
Voltage-gated inwardly rectifying potassium channel KCNH2, sequence (Q12809 whole entry): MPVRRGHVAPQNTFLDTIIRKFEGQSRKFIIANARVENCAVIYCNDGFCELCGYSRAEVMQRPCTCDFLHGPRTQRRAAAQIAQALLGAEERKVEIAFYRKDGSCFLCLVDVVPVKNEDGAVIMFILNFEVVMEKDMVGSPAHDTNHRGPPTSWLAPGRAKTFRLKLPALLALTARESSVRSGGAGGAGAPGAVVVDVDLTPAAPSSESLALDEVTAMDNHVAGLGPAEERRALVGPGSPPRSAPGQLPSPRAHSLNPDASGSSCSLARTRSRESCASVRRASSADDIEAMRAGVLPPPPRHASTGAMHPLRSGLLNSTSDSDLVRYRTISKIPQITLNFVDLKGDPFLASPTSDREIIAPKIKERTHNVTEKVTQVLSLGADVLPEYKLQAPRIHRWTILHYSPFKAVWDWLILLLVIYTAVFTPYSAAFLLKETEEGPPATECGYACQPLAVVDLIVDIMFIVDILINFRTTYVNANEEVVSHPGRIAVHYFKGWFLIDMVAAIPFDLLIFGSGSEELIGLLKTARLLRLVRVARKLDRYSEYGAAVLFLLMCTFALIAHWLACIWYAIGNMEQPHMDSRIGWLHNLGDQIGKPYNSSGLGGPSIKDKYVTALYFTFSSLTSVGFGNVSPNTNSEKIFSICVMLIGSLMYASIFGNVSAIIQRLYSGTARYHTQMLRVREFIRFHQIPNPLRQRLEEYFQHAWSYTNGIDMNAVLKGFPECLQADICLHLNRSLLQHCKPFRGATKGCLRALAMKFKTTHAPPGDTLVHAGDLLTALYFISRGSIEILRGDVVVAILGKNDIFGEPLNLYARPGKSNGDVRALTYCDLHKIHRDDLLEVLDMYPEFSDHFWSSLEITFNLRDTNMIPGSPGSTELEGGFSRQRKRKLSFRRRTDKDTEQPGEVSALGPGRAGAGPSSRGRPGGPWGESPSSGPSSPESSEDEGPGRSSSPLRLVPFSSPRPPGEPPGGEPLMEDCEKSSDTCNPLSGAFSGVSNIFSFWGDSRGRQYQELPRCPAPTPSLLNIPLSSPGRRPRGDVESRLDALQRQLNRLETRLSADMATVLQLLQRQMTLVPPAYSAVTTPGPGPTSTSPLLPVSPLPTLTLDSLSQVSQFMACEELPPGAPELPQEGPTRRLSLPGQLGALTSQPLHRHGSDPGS

[9] = luciferase reporter signal suppression in cells – H4 neuroglioma cells, luminescence, dose response (AID 1990); assay type: functional, cell-based
[10] = Luminescence Cell-Based Dose Response HTS to Identify Inhibitors of 5'UTR Stem-Loop Driven Prion Protein mRNA Translation in H4 Neuroglioblastoma Cells. [Related pubchem assays: 1827 (Project Summary), 1813 (Primary HTS)]; assay type: functional
[11] = alpha-synuclein stem-loop luciferase translation blockers – H4 neuroglioma cells, luminescence, confirmation (AID 1988); assay type: functional, cell-based
[12] = Luminescence-based counterscreen assay for KLF5 inhibitors: dose response cell-based high throughput screening assay to identify cytotoxic compounds using the IEC-6 intestinal epithelial cell line. [Related pubchem assays: 1700 (Primary screen.), 1834 (Confirmation screen.), 1858 (Summary AID.), 1905 (Counterscreen.)]; assay type: functional
[13] = target: T4, Microphthalmia-associated transcription factor (Homo sapiens, UniProt O75030); assay: reducers of TRPM1 reporter luminescence, concentration series – cell-based, SK-MEL-5, cherry-picked, set 3, MITF inhibitor project, dose response (AID 493073); assay type: functional;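 note: SK-MEL-5 melanoma cells with luciferase driven by the MITF target TRPM1 promoter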
T4 sequence (O75030 whole entry): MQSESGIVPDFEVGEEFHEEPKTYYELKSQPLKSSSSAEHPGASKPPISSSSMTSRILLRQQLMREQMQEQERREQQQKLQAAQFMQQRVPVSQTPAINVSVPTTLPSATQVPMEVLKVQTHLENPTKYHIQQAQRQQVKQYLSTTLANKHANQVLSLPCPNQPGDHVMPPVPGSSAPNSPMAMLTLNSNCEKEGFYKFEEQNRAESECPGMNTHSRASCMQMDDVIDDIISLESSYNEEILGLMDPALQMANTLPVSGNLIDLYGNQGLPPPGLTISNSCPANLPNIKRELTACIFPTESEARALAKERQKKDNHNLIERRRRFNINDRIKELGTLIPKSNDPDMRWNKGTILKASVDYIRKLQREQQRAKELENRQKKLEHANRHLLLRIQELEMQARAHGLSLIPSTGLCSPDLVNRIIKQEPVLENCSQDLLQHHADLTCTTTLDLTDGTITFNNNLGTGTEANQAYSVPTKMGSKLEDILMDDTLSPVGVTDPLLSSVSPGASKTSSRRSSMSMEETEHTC

[14] = HEK-293T cell viability reduction – luminescence, B-cell screen hits, cytotoxicity control for BCR NF-kB inhibitor project, dose response (AID 489021); assay type: functional, cell-based;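 note: HEK-293T cells carrying an NF-kB luciferase reporter; cells exposed to compound for about 14 hours before viability readout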
Jurkat = assay: SAR Analysis of small molecule inhibitors of […] specific antigen receptor-induced NF-kB activation in a Jurkat cell line using a luminescence assay - Set 3. [Related pubchem assays (depositor defined):AID435022, AID435025, AID465]; assay type: functional, cell-based; details: Homo sapiens
HEK293 [15] = assay: SAR Analysis of small molecule inhibitors of B-cell specific antigen receptor-induced NF-kB activation in a HEK-293T cell line using a luminescence assay - Set 2. [Related pubchem assays (depositor defined):AID435022, AID435025, AID489021]; assay type: functional, cell-based; details: Homo sapiens
HEK293 [16] = assay: HEK293T cell viability loss, resazurin readout – resazurin fluorescence, cytotoxicity control for NF-kB activator project, SAR follow-up (AID 493251); assay type: functional, cell-based; details: Homo sapiens
A-375 [17] = assay: MITF: Counter assay: A375 proliferation Measured in Cell-Based System Using Plate Reader - 2084-03_Inhibitor_Dose_DryPowder_Activity. [Related pubchem assays (depositor defined):AID488944]; assay type: functional; details: Homo sapiens
A-375 [18] = assay: proliferation inhibition in MITF-low A375 cells – cell-based, cherry-pick samples, set 2, counter-screen for MITF modulator project, dose response (AID 540335); assay type: functional; details: Homo sapiens
[19] = blockers of HIV-1 envelope-mediated cell-cell fusion – cherry-pick, dose response (AID 652057); assay type: functional, cell-based
[20] = blockers of HIV-1 ZM109 envelope-driven cell-cell fusion – HeLa effector, CEM target cells, luciferase, cherry-pick, dose response (AID 652058); assay type: functional, cell-based;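 note: luciferase signal from HIV-1 Env mediated cell-cell fusion of effector and target cells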
[21] = HIV-1 AD8 envelope cell-cell fusion blockers – cherry-pick, dose response (AID 652062); assay type: functional, cell-based;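 note: luciferase signal from cell-cell fusion driven by HIV-1 clade B AD8 Env; potency is for inhibitors of fusion seen as a drop in luminescence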
[22] = luciferase signal loss, tTA control fusion, HeLa F-luc tTA cells, dry powder, counter-screen for HIV Env fusion inhibitor project, dose response (AID 687021); assay type: functional, cell-based
[23] = viability loss in CEM21 cells – cell-based, plate reader, dry powder, cytotoxicity control, dose response (AID 687026); assay type: functional

O=C1S/C(=C\c2ccc(O)c([N+](=O)[O-])c2)C(=O)N1c1ccccc1Cl
EC50 [1]: > 120 µM (not active)
CC50 (Vero): > 40 µM (active)
IC50 (Genome polyprotein): 40.6 µM (active)
IC50 [2]: 24.4 µM (active)
EC50 [3]: > 53 µM (inactive)
IC50 [4]: > 20 µM (inactive)

Cc1ccc(S(=O)(=O)N[C@@H](Cc2ccccc2)C(=O)CCl)cc1 [TPCK]
IC50 [5]: 1.9 µM (active)
IC50 (Perilipin-1/ABHD5): 1.87 µM (active)
IC50 [6]: 13 µM (inactive)
AC50 [7]: 2.03 µM (active)
EC50 (Protein RecA): 712 nM (active)
AC50 [8]: 12.6 µM (inconclusive)

CC(C)(C)c1ccc(-c2noc(CCC(=O)NCC3CCCO3)n2)cc1 (stereo not drawn)
EC50 [9]: < 100 nM (active)
EC50 [10]: 9.11 µM (active)
EC50 [11]: 152 nM (active)
IC50 [12]: > 39.8 µM (not active)
AC50 [13]: 275 nM (active)
IC50 [14]: > 80 µM (inactive)
IC50 (Jurkat): 13.4 µM (active)
IC50 (HEK293 [15]): 1.54 µM (active)
IC50 (HEK293 [16]): 70.9 µM (inactive)
AC50 (A-375 [17]): > 35 µM (active)
AC50 (A-375 [18]): > 35 µM (active)
AC50 [19]: 359 nM (active)
AC50 [20]: 293 nM (active)
AC50 [21]: < 260 nM (active)
AC50 [22]: 67.1 µM (active)
AC50 [23]: > 70 µM (inactive)
